In PubChem BioAssay (NCI) one finds GI50 and TGI data, which are given here for 15 compounds.

Holding throughout (assay): NCI-60 cell line screen, 48 h
In assay [1] the test system is M14 melanoma.
The subject of assay [2] is NCI/ADR-RES ovarian.
For assay [3], the system named is HS 578T breast.
Assay [4] concerns SN12C renal.
Assay [5] concerns MOLT-4 leukemia.
The subject of assay [6] is NCI-H460 lung.
In assay [7] the test system is OVCAR-5 ovarian.
In assay [8] the test system is SR leukemia.

The structures appear in SMILES notation. Where “and” joins values, the source holds several entries; their conditions need not be identical. Equal entries are not always repeated.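 Cells were grown in 96-well plates and exposed to each compound for 48 hours at five concentrations; endpoints were interpolated linearly between bracketing concentrations, or set to the highest concentration if not reached. Abbreviation: GI50, concentration required for 50% inhibition of growth. TGI: concentration producing complete growth inhibition.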 Bounds are passed on as bounds.

As for `Oc1ccccc1C=Nc1nc(SCc2ccccc2)nc2[nH]ncc12`, the GI50 was 38.4 µM in assay [1]; 43.8 µM in assay [2]; 11 µM in assay [3]; > 100 µM in assay [4]; 24.8 µM in assay [5]; 36.9 µM in assay [6]. The values for the GI50 in assay [7] and in assay [8] were > 100 µM and 22.5 µM, respectively. Further, the TGI in assay [1] was > 100 µM; in assay [2], > 100 µM; in assay [3] it was 44.7 µM; in assay [4], > 100 µM; in assay [5], > 100 µM; in assay [6] it was > 100 µM. For the same compound, the TGI in assay [7] and in assay [8] was > 100 µM each time.

`O=C(O)C1C(C(=O)O)C23CC2(C(=O)O)C2(C(=O)O)CCC3=C3CCCC312` (configuration not stated): the TGI in assay [1] is > 100 µM; in assay [2], > 100 µM; in assay [3], 7.8 µM; in assay [4], 36.4 µM; in assay [5], 30.2 µM; in assay [6] it was 20 µM. Further, the TGI came out at 47.3 µM in assay [7] and 6.6 µM in assay [8].

As for `COc1cc(NC(=O)CSc2nc3ccc(C)cc3c(=O)n2Cc2ccccc2)cc(OC)c1OC`, the GI50 in assay [1] is 8.38 µM; in assay [2] it was 8.97 µM; in assay [3], 3.23 µM; in assay [4], 25.4 µM; in assay [5], > 100 µM; in assay [6], 7.24 µM. The GI50 in assay [7] was 58 µM; in assay [8] it was 52.7 µM. The TGI in assay [1], in assay [2], in assay [3], in assay [4], in assay [5] and in assay [6] was > 100 µM each time. The TGI in assay [7] and in assay [8] was > 100 µM throughout.

In the case of `CN(C)CCCN1c2ccccc2C(C)(C)c2ccccc21`, the TGI was 28.8 µM in assay [1]; 31.8 µM in assay [2]; 43.3 µM in assay [3]; 27.9 µM in assay [4]; 26.6 µM in assay [5]; 26.4 µM in assay [6]. Besides, the TGI in assay [7] came to 27.2 µM; in assay [8] it was 27.1 µM.

Take `COc1ccc(/C=C(\C#N)n2nnc3ccccc32)cc1`: the GI50 in assay [1] is 0.071 µM; in assay [2], 0.0604 µM; in assay [3], 0.396 µM; in assay [4], 0.832 µM; in assay [5], 0.542 µM; in assay [6], 0.322 µM. In addition, the figures for the GI50 in assay [7] and in assay [8] were 0.463 µM and 0.0555 µM, respectively. Further, the TGI in assay [1] is 2.02 µM; in assay [2], 28.2 µM; in assay [3], > 100 µM; in assay [4], 26.6 µM; in assay [5] it was > 44.9 µM; in assay [6] it was 7.88 µM. Also, the TGI in assay [8] is > 39.6 µM.

As for `COc1ccc(-n2cc(-c3cc(OC)c(OC)c(OC)c3)nc2SCc2ccccc2)cc1OC`, the GI50 in assay [1] was > 91.6 µM; in assay [2], > 100 µM; in assay [3], > 100 µM; in assay [4], > 100 µM; in assay [5] it was 24.6 µM; in assay [6], > 100 µM. Further, the results for the GI50 in assay [7] and in assay [8] were > 100 µM and 44.1 µM, respectively. Further, the TGI in assay [1], in assay [2], in assay [3], in assay [4], in assay [5] and in assay [6] was > 100 µM in each case. Besides, the TGI in assay [7] and in assay [8] was > 100 µM each time.

Turning to `O=Cc1ccccc1B(O)O`, the TGI in assay [1] is > 100 µM; in assay [2], > 100 µM; in assay [3], 49.3 µM; in assay [4], > 100 µM; in assay [5] it was 26.1 µM; in assay [6], > 100 µM. Further, the TGI in assay [7] was > 100 µM; in assay [8] it was 2.08 µM.

For the compound `O=c1oc2cc(N=Cc3ccc4c(c3)OCO4)ccc2c2ccccc12`, the TGI in assay [1], in assay [2], in assay [3], in assay [4], in assay [5] and in assay [6] was > 100 µM in each case. In addition, the TGI in assay [7] and in assay [8] was > 100 µM each time.

Turning to `Clc1ccc2nnnn2n1`, the GI50 in assay [1] was 1.98 µM; in assay [2], 5.61 µM; in assay [3] it was 21.8 µM; in assay [4], 4.7 µM; in assay [5] it was 3.26 µM; in assay [6], 3.26 µM. The GI50 is 4.7 µM in assay [7] and 1.46 µM in assay [8]. Besides, the TGI in assay [1] is 6.26 µM; in assay [2], > 100 µM; in assay [3] it was > 100 µM; in assay [4] it was > 100 µM; in assay [5] it was 44.5 µM; in assay [6], 12 µM. Besides, the TGI in assay [7] stood at 20.5 µM; in assay [8] it was 8 µM.

Turning to `COc1ccc(NC(=O)COCCOCCNC[C@@H]2C(=O)O[C@H]3[C@H]2CC/C(COC(=O)OC/C2=C/CC[C@@]4(C)O[C@H]4[C@H]4OC(=O)[C@@H](CN(C)C)[C@@H]4CC2)=C\CC[C@@]2(C)O[C@@H]32)c(O)c1C(N)=O`, the GI50 is 7.22 µM in assay [1]; > 50 µM in assay [2]; 14.7 µM in assay [3]; 7.74 µM in assay [4]; 1.63 µM in assay [5]; 16.5 µM in assay [6]. The GI50 in assay [7] is 8.9 µM; in assay [8] it was 1.99 µM. Also, the TGI in assay [1] was 15.5 µM; in assay [2], > 50 µM; in assay [3] it was > 50 µM; in assay [4] it was 17.5 µM; in assay [5], 6 µM; in assay [6], > 50 µM. Also, the TGI came out at 17.4 µM in assay [7] and 9.28 µM in assay [8].

On to `COc1ccc(S(=O)(=O)Nc2cc(/C=C\c3cc(OC)c(OC)c(OC)c3)ccc2OC)cc1`, for which the GI50 in assay [1] was 0.103 µM; in assay [2] it was 0.0711 µM; in assay [3], 0.226 µM; in assay [4] it was 0.682 µM; in assay [5], 0.388 µM; in assay [6], 0.178 µM. Moreover, the GI50 was 0.323 µM in assay [7] and 0.0709 µM in assay [8]. Further, the TGI in assay [1] is > 100 µM; in assay [2], 30.8 µM; in assay [3], > 100 µM; in assay [4], > 100 µM; in assay [5], > 100 µM; in assay [6], 11.7 µM. Also, the TGI is > 100 µM in assay [7] and 4.18 µM in assay [8].

As to `COc1cc(Cl)cc(-c2nn(-c3cccc(NC(=O)Nc4cc(C(F)(F)F)cc(C(F)(F)F)c4)c3)cc2-c2ccncc2)c1`, the GI50 is 0.481 µM in assay [1]; 0.778 µM in assay [2]; 1.89 µM in assay [3]; 0.427 µM in assay [4]; 0.33 µM in assay [5]; 0.374 µM in assay [6]. Besides, the GI50 in assay [7] was 1.6 µM; in assay [8] it was 0.439 µM. The TGI was found to be 2.3 µM in assay [1]; 9.66 µM in assay [2]; 13.6 µM in assay [3]; 3.05 µM in assay [4]; 1.92 µM in assay [5]; 1.71 µM in assay [6]. Besides, the TGI in assay [7] came out at 10.1 µM; in assay [8] it was 3.51 µM.

With `CC1(O)CC(c2nc(-c3ccc4ccc(-c5ccccc5)nc4c3)c3c(N)nccn23)C1` (configuration not stated), the GI50 was 11.5 µM and > 10 µM in assay [1]; 10.6 µM and > 10 µM in assay [2]; 13.8 µM and 4.28 µM in assay [3]; 9.64 µM and > 10 µM in assay [4]; 7.16 µM and 3.72 µM in assay [5]; 2.7 µM and 1.5 µM in assay [6]. Moreover, the GI50 was 12.1 µM and > 10 µM in assay [7]; 15.7 µM and 7.92 µM in assay [8]. The TGI in assay [1] was 31.1 µM and > 10 µM; in assay [2], 96.9 µM and > 10 µM; in assay [3], 51.9 µM and > 10 µM; in assay [4], > 80.9 µM; in assay [5], > 80.1 µM; in assay [6] it was 24.8 µM and > 10 µM. Also, the TGI in assay [7] was 44.7 µM and > 10 µM; in assay [8], > 75.2 µM.

As to `COc1ccccc1N1CCN(CCc2c[nH]c3cc4c(cc23)OCO4)CC1`, the GI50 in assay [1] is 11.3 µM; in assay [2] it was 26.4 µM; in assay [3] it was 20.1 µM; in assay [4] it was 23.5 µM; in assay [5], 38.8 µM; in assay [6], 15.5 µM. Besides, the GI50 in assay [7] is 15.5 µM; in assay [8] it was 23.8 µM. For the same compound, the TGI in assay [1] was 40.7 µM; in assay [2] it was > 100 µM; in assay [3], 70.9 µM; in assay [4], > 100 µM; in assay [5], > 100 µM; in assay [6], > 100 µM. Further, the results for the TGI in assay [7] and in assay [8] were > 100 µM and 99 µM, respectively.

Take `COc1ccc(/C(=N\O)c2cc(C)c(OC)c(C)c2)cc1O`: the GI50 in assay [1] was < 0.01 µM; in assay [2], < 0.01 µM; in assay [3], 0.0198 µM; in assay [4], 0.0484 µM; in assay [5] it was 0.052 µM; in assay [6], < 0.01 µM. In addition, the GI50 is 0.0631 µM in assay [7] and < 0.01 µM in assay [8]. The TGI was > 100 µM in assay [1]; > 100 µM in assay [2]; > 100 µM in assay [3]; > 100 µM in assay [4]; > 100 µM in assay [5]; 15.6 µM in assay [6]. The TGI in assay [7] and in assay [8] was > 100 µM in each case.
